# Patent US4606911A, “Pharmaceutical composition for the prevention of dental caries” (Rohto Pharmaceutical Co. Ltd., priority 1984, dated 1986)
# “Also recorded” adds a separate entry of the source.
# Tests used:
# Format in all cases: cell-based
# bacterial cells = assay: Adherence of bacterial cells to the surface of an extracted tooth; conditions: extracted tooth suspended in a culture medium containing sucrose
# [1] = tested on: S. mutans OMZ 176 (serotype d); assay: microbe, parasite or virus in culture
# Protocol: The adherence-inhibiting activity of the triterpenes of the formula (I) was measured using an inner wall of a test tube in place of the surface of a tooth.
# To 2.9 ml of BHI medium containing 5% sucrose in a test tube (i) are added 30 μl of a sample solution prepared by dissolving a compound of: the formula (I) in H2 O or dimethylsulfoxide (DMSO) and 100 μl of culture medium containing S. mutans OMZ 176 (serotype d) which was preincuvated at 37° C. for 24 hours in BHI medium, and the mixture is incubated at 37° C. for 20 hours, with the test tube being maintained at a slant of 30°. The test tube is revolved gently two or three times and the supernatant is transferred to another test tube (ii). To the first test tube (i) is added 3 ml of 50 mM phosphate buffer (pH 7.5), and the test tube is gently revolved two or three times. The resultant supernatant is transferred to the third test tube (iii). The test tubes (ii) and (iii) are each centrifuged and respective supernatants are discarded. To each of the test tubes (i), (ii) and (iii) is added 3 ml of 0.5M NaOH, and the test tubes are shaken to suspend bacterial cells. Absorbance of the resulting suspension is measured at 660 nm. The absorbances obtained with respect to the test tube (i), (ii) and (iii) are represented by Ab(i), Ab(ii) and Ab(iii), respectively. Ab(i) reflects the amount of the bacterial cells adhered to the wall of the test tube and Ab(ii) and Ab(iii) correspond to the amount of the bacterial cells not adhered to the wall.
# The same procedure is repeated using 30 μl of distilled water or DMSO in place of the sample solution to obtain a control. The absorbance of the control is represented by Ab(Cont.).
# Adherence percentage of bacteria is calculated from the following equation. [formula]
# Adherence inhibitory percentage (AIP) is calculated using the adherence percentage according to the following equation. [formula]
# The magnitude of adherence-inhibiting activity of each of the samples is shown, in Table 3, by the use of the following symbols: […]
# [2] = tested on: Pseudomonas aeruginosa KM338; assay: Antibacterial activity (MIC, growth in BHI medium); design: key to Antibacterial activity (growth): -: grow; ±: slightly grow; +: not grow
# Protocol: (§1) To a test tube was charged 3.8 ml of Brain Heart Infusion (BHI) medium, and 100 μl of a sample solution containing oleanolic, ursolic or glycyrrhetic acid and 100 μl of pre-incubated culture of bacterium selected from those listed below were added thereto. The mixture was incubated at 37° C. and then allowed to stand over night. The extent of the growth of bacterium was observed after two or five days. The MIC value was determined for each sample and summarized in Table 2. |Pseudomonas aeruginosa KM338
# [3] = tested on: Streptococcus salivarius ATCC 9222; assay: Antibacterial activity (MIC, growth in BHI medium); design: key to Antibacterial activity (growth): -: grow; ±: slightly grow; +: not grow
# Protocol: as §1, with “|Streptococcus salivarius ATCC 9222” for “|Pseudomonas aeruginosa KM338”
# [4] = tested on: Staphylococcus aureus 209P; assay: Antibacterial activity (MIC, growth in BHI medium); design: key to Antibacterial activity (growth): -: grow; ±: slightly grow; +: not grow
# Protocol: as §1, with “|Staphylococcus aureus […]” for “|Pseudomonas aeruginosa KM338”
# [5] = tested on: Serratia marcescens IFO 12648; assay: Antibacterial activity (MIC, growth in BHI medium); design: key to Antibacterial activity (growth): -: grow; ±: slightly grow; +: not grow
# Protocol: as §1, with “|Serratia marcescens IFO 12648” for “|Pseudomonas aeruginosa KM338”
# [6] = tested on: Streptococcus mutans OMZ 176; assay: Antibacterial activity (MIC, growth in BHI medium); design: key to Antibacterial activity (growth): -: grow; ±: slightly grow; +: not grow; conditions: for antibacterial activity to S. mutans (in words): text statement
# Protocol: as §1, with “days.” for “days. The MIC value was determined for each sample and summarized in Table 2. |Pseudomonas aeruginosa KM338”
# Streptococcus mutans OMZ 176
# [7] = Streptococcus mutans, read-out: Adherence-inhibiting activity (AIP)
smiles,measurement,setting,value
CC1(C)CC[C@]2(C(=O)O)CC[C@]3(C)C(=CC[C@@H]4[C@@]5(C)CC[C@H](O)C(C)(C)[C@@H]5CC[C@]43C)[C@@H]2C1 [Oleanolic acid],adherence of bacterial cells to the surface of an extracted tooth,bacterial cells,completely inhibited
same,minimal effective concentration,"[1]; Streptococcus mutans, 20 h, read-out: concentration at which adherence of the bacterial cells is inhibited",10 µg/mL
same,inhibition at 10 µg/mL,[1]; [7],> 50%
same,inhibition at 20 µg/mL,[1]; [7],> 50%
same,inhibition at 30 µg/mL,[1]; [7],> 50%
same,inhibition at 50 µg/mL,[1]; [7],> 50%
same,inhibition at 100 µg/mL,[1]; [7],> 50%
same,adherence-inhibiting activity (in words),"[1]; text statement, listed as oleanolic acid",have both of the adherence-inhibiting activity and the selective antibacterial activity to S. mutans; also recorded: have both activities
same,Antibacterial activity (growth),[2]; 10 μg/ml,-
same,Antibacterial activity (growth),[2]; 25 μg/ml,-
same,Antibacterial activity (growth),[2]; 50 μg/ml,-
same,Antibacterial activity (growth),[2]; 100 μg/ml,-
same,Antibacterial activity (growth),[2]; 200 μg/ml,-
same,Antibacterial activity (growth),[2]; 400 μg/ml,-
same,MIC,"[2]; KM338, Pseudomonas aeruginosa, BHI, 37° C., read-out: MIC (minimum inhibitory concentration)",> 400 µg/mL
same,Antibacterial activity (growth),[3]; 10 μg/ml,-
same,Antibacterial activity (growth),[3]; 25 μg/ml,-
same,Antibacterial activity (growth),[3]; 50 μg/ml,-
same,Antibacterial activity (growth),[3]; 100 μg/ml,-
same,Antibacterial activity (growth),[3]; 200 μg/ml,±
same,Antibacterial activity (growth),[3]; 400 μg/ml,+
same,MIC,"[3]; ATCC9222, Streptococcus salivarius, BHI, 37° C., read-out: MIC (minimum inhibitory concentration)",400 µg/mL
same,Antibacterial activity (growth),[4]; 10 μg/ml,-
same,Antibacterial activity (growth),[4]; 25 μg/ml,-
same,Antibacterial activity (growth),[4]; 50 μg/ml,-
same,Antibacterial activity (growth),[4]; 100 μg/ml,-
same,Antibacterial activity (growth),[4]; 200 μg/ml,-
same,Antibacterial activity (growth),[4]; 400 μg/ml,-
same,MIC,"[4]; 209P, Staphylococcus aureus, BHI, 37° C., read-out: MIC (minimum inhibitory concentration)",> 400 µg/mL
same,Antibacterial activity (growth),[5]; 10 μg/ml,-
same,Antibacterial activity (growth),[5]; 25 μg/ml,-
same,Antibacterial activity (growth),[5]; 50 μg/ml,-
same,Antibacterial activity (growth),[5]; 100 μg/ml,-
same,Antibacterial activity (growth),[5]; 200 μg/ml,-
same,Antibacterial activity (growth),[5]; 400 μg/ml,-
same,MIC,"[5]; IFO12648, Serratia marcescens, BHI, 37° C., read-out: MIC (minimum inhibitory concentration)",> 400 µg/mL
same,Antibacterial activity (growth),[6]; 10 μg/ml,-
same,antibacterial activity at 10 μg/ml (in words),[6]; 10 μg/ml,ineffective for exhibiting antibacterial activity
same,Antibacterial activity (growth),[6]; 25 μg/ml,-
same,Antibacterial activity (growth),[6]; 50 μg/ml,±
same,Antibacterial activity (growth),[6]; 100 μg/ml,±
same,Antibacterial activity (growth),[6]; 200 μg/ml,±
same,Antibacterial activity (growth),[6]; 400 μg/ml,±
same,MIC,"[6]; Streptococcus mutans, OMZ176, Streptococcus mutans OMZ 176, BHI, 37° C., read-out: MIC (minimum inhibitory concentration)",400 µg/mL
same,antibacterial activity to S. mutans (in words),[6],"also exhibit the selective activity on S. mutans, although the magnitude of the activity is each less than that of glycyrrthetic acid"
same,antibacterial activity to S. mutans (in words),[6]; listed as oleanolic acid,have both of the adherence-inhibiting activity and the selective antibacterial activity to S. mutans; also recorded: have both activities
